Test: Uric acid-lowering test in monkeys having hyperuricemia (UA subcutaneous injection)
Format: in vivo, cynomolgus monkeys
Details: cynomolgus monkey, serum, sc; uric acid (UA) by subcutaneous injection at the nape, cynomolgus monkeys from the model group; read-out: half-life (t½z) (converted)
Description: The experiment was conducted by reference to Komoriya K, Osada Y, Hasegawa M, Horiuchi H, Kondo S, Couch R C, Griffin T B. Hypouricemic effect of allopurinol and the novel xanthine oxidase inhibitor TEI-6720 in chimpanzees. Eur J Pharmacol. 1993 Dec. 21; 250(3): 455-60.
In the Model group, three non-naïve cynomolgus monkeys (1 #, 2 # and 3 #) were administered with UA by subcutaneous injection at the nape. Blood was collected from the vein before UA administration and 0.5 h, 1 h, 2 h, 4 h, 6 h and 24 h after UA administration. The blood was left still at room temperature. The serum was collected by centrifugation. The content of serum uric acid was measured.
In the Administration group, three non-naïve cynomolgus monkeys (1 #, 2 # and 3 #) were administered with the test sample by intravenous injection after 2 weeks of clearance. Blood was collected from the vein before administration and 2 h after administration of test sample. Then, the monkeys were administered with UA by subcutaneous injection at the nape and blood was collected from the vein 1 h, 2 h and 4 h after the UA administration. The blood was left still at room temperature. The serum was collected by centrifugation. The content of serum uric acid was measured. Reduction rate of serum uric acid in healthy monkeys administered with test sample=(average uric acid content before administration−average uric acid content 2 h after administration of test sample)/average uric acid content before administration*100%, Reduction rate of serum uric acid in monkeys having hyperuricemia after administration of test sample=(uric acid content after UA administration in the model group−uric acid content after UA administration in the administration group)/uric acid content in the model group*(100%).
That was, the samples were collected before administration, 2 h after administration of test sample and 1 h, 2 h and 4 h after UA administration for determination of the serum uric acid content. The contents of serum uric acid in the model group and the administration group and the reduction rates of serum uric acid were shown in the following Tables 3-1, 3-2 and 3-3, respectively.

## O=c1[nH]c(=O)c2[nH]c(=O)[nH]c2[nH]1 [uric acid (UA), uric acid]
  half-life: 32.4 min

Source: US10322132B2, “Prevention or treatment of uratic or gouty diseases” (SHANTON PHARMA CO., LTD., priority 2015, dated 2019)
